# Laboratory results: patent USRE48461E1, “Modulation of androgen receptor expression” (Ionis Pharmaceuticals, Inc., priority 2012, dated 2021)
# Tests used:
# Assay type in all cases: cell-based, human
# [1] = system: LMR20 cells; assay: Proliferation of MDV3100-resistant LMR20 cells (MTT; with R1881 or DHT); details: 5 days
# Protocol: LMR20 cells were plated at 1,500 cells per well in phenol red-free medium with charcoal-stripped fetal bovine serum (CSS), to remove any androgens from the medium (Life Technologies). […] The synthetic androgen agonist, R1881, (Takeda, A. N. et al., Mol. Pharmacol. 2007. 71: 473-82) was added on day 1 at 1 nM dose to a set of cells also treated with each of the antisense oligonucleotides. DHT was added on day 1 at a dose of 10 nM to another set of cells also treated with each of the antisense oligonucleotides. […] After a treatment period of 5 days, the proliferative ability of the cancer cells was measured by the standard MTT assay. Results are presented in Table 42 as percent inhibition of proliferation, relative to non-treated cells.
# [2] = system: PSA mRNA; assay: PSA expression in C4-2B cells (Example 30); details: 48 hrs
# Protocol: Cells were plated at 1,000 cells per well. […] ISIS 549148 was included as a negative control. […] After an incubation period of 48 hrs, RNA levels of AR, PSA and TMPRSS2 were measured.
# Cells were plated at 2,000 cells per well and cultured in CSS media with 1 nM DHT. […] ISIS 549148 was included as a negative control. […] After an incubation period of 48 hrs, RNA levels of AR, PSA and TMPRSS2 were measured. In the absence of DHT, AR expression in C4-2 cells was 188%, PSA expression was 43% and TMPRSS2 expression was 27% compared to the untreated control.
# [3] = system: cleaved PARP; assay: Cleaved PARP western blot in VCaP cells
# [4] = system: TMPRSS2 mRNA; assay: TMPRSS2 expression in VCaP cells; details: 48 hrs
# Protocol: Cells were plated at 10,000 cells per well. […] After an incubation period of 48 hrs, RNA levels of full length AR, the V7 variant, PSA and TMPRSS2 were measured.
# After an incubation period of 48 hrs, RNA levels of full length AR, the V7 variant, PSA and TMPRSS2 were measured. The data is presented in Tables 108 expressed as percent expression of gene levels compared to the untreated control.
# Cells were plated at 15,000 cells per well and cultured in CSS media for 16 hours. […] After 4 hrs, 1 nM DHT was added. […] After an incubation period of 48 hrs, RNA levels of AR, PSA and TMPRSS2 were measured.
# [5] = system: 22RV1 cells; assay: 22RV1 cell proliferation, ASO in combination with MDV3100 (Example 22); details: Homo sapiens, 22Rv1, read-out: inhibited proliferation, MDV3100 with control oligonucleotide ISIS 549148
# Protocol: 22RV1 cells were plated at 2,000 cells per well in 5% CSS medium for 48 hours. […] ISIS 549148 was included as a negative control. […] After a treatment period of 3 days, the proliferative capacity of the cancer cells was measured with CellTiter 96® AQueous One Solution Cell Proliferation kit (Promega), following the manufacturer's instructions. Results are presented in Tables 58-62 as percent inhibition of proliferation, relative to non-treated cells.
# [6] = system: AR mRNA; assay: AR RNA expression in C4-2 cells (complete, CSS+DHT medium); details: 48 hrs; for Percent expression of AR / AR expression: C4-2 cells; for Percent expression of AR: CSS + DHT medium
# Protocol: Cells were plated at 1,000 cells per well. […] After an incubation period of 48 hrs, RNA levels of AR, PSA and TMPRSS2 were measured.
# Cells were plated at 2,000 cells per well and cultured in CSS media with 1 nM DHT. […] After an incubation period of 48 hrs, RNA levels of AR, PSA and TMPRSS2 were measured.
# [7] = system: prostate-specific antigen (PSA) mRNA; assay: PSA mRNA levels in LMR20 cells; details: for PSA mRNA levels (% baseline value) after treatment with DHT / PSA mRNA levels (% baseline value) after treatment with R1881 / PSA mRNA levels (% baseline value) of cells without AR agonist treatment: LMR20 cells; for PSA mRNA levels (% baseline value) after treatment with DHT: DHT 10 nM 72 hrs; for PSA mRNA levels (% baseline value) after treatment with R1881: R1881 10 nM 72 hrs; for PSA mRNA levels (% baseline value) of cells without AR agonist treatment: no AR agonist; for PSA mRNA levels in LMR20 cells: with or without DHT/R1881
# Protocol: LMR20 cells were plated at 1,500 cells per well in phenol red-free medium with CSS. […] Results are presented in Tables 43-45 as mRNA levels expressed as a percentage of the baseline values. mRNA levels may be lowered or increased after treatment.
# [8] = system: KLK3 mRNA; assay: KLK3 mRNA (AR target gene) in C4-2B MR cells; details: C4-2B MR cells, 0.04-5.00 μM
compound,measurement,setting,value
"CNC(=O)c1ccc(N2C(=S)N(c3ccc(C#N)c(C(F)(F)F)c3)C(=O)C2(C)C)cc1F [MDV3100, 4-(3-(4-cyano-3-(trifluoromethyl)phenyl)-5,5-dimethyl-4-oxo-2-thioxoimidazolidin-1-yl)-2-fluoro-N-methylbenzamide, reference compound]",Percent inhibition of LMR20 cell proliferation,"[1]; CSS + DHT, ASO 0.04 μM",0%
same,Percent inhibition of LMR20 cell proliferation,"[1]; CSS + DHT, ASO 0.20 μM",1%
same,Percent inhibition of LMR20 cell proliferation,"[1]; CSS + DHT, ASO 1.0 μM",13%
same,Percent inhibition of LMR20 cell proliferation,"[1]; CSS + DHT, ASO 5.0 μM",41%
same,Percent inhibition of LMR20 cell proliferation,"[1]; CSS + R1881, ASO 0.04 μM",0%
same,Percent inhibition of LMR20 cell proliferation,"[1]; CSS + R1881, ASO 0.20 μM",5%
same,Percent inhibition of LMR20 cell proliferation,"[1]; CSS + R1881, ASO 1.0 μM",31%
same,Percent inhibition of LMR20 cell proliferation,"[1]; CSS + R1881, ASO 5.0 μM",67%
same,Percent inhibition of LMR20 cell proliferation,"[1]; CSS, ASO 0.04 μM",0%
same,Percent inhibition of LMR20 cell proliferation,"[1]; CSS, ASO 0.20 μM",5%
same,Percent inhibition of LMR20 cell proliferation,"[1]; CSS, ASO 1.0 μM",0%
same,Percent inhibition of LMR20 cell proliferation,"[1]; CSS, ASO 5.0 μM",11%
same,Percent inhibition of PSA expression,"[2]; CSS + DHT medium, 0.04 μM",0%
same,Percent inhibition of PSA expression,"[2]; CSS + DHT medium, 0.2 μM",0%
same,Percent inhibition of PSA expression,"[2]; CSS + DHT medium, 1 μM",37%
same,Percent inhibition of PSA expression,"[2]; CSS + DHT medium, 5.0 μM",45%
same,Percent inhibition of PSA expression,"[2]; complete medium, 0.04 μM",8%
same,Percent inhibition of PSA expression,"[2]; complete medium, 0.2 μM",27%
same,Percent inhibition of PSA expression,"[2]; complete medium, 1 μM",73%
same,Percent inhibition of PSA expression,"[2]; complete medium, 5.0 μM",88%
same,cleaved PARP levels (western blot),[3],increased in a dose-dependent manner
same,"Percent of gene expression, TMPRSS2","[4]; CSS + DHT medium, 0.04 μM",115%
same,"Percent of gene expression, TMPRSS2","[4]; CSS + DHT medium, 0.2 μM",96%
same,"Percent of gene expression, TMPRSS2","[4]; CSS + DHT medium, 1.0 μM",70%
same,"Percent of gene expression, TMPRSS2","[4]; CSS + DHT medium, 5.0 μM",42%
same,"Percent of gene expression, TMPRSS2","[4]; complete medium, 0.04 μM",131%
same,"Percent of gene expression, TMPRSS2","[4]; complete medium, 0.2 μM",121%
same,"Percent of gene expression, TMPRSS2","[4]; complete medium, 5.0 μM",141%
same,inhibition at 1 µM,[5],5%
same,Percent expression of AR,[6]; 0.04 μM,101%
same,Percent expression of AR,[6]; 0.2 μM,109%
same,AR expression,[6]; CSS+DHT medium,increased AR expression in the cells
same,AR expression,[6]; complete medium,increased AR expression in the cells
same,Percent expression of AR in C4-2 cells cultured in complete medium,"[6]; complete medium, 0.04 μM",95%
same,Percent expression of AR in C4-2 cells cultured in complete medium,"[6]; complete medium, 0.2 μM",99%
same,Percent expression of AR in C4-2 cells cultured in complete medium,"[6]; complete medium, 1 μM",132%
same,Percent expression of AR in C4-2 cells cultured in complete medium,"[6]; complete medium, 5.0 μM",137%
same,PSA mRNA levels (% baseline value) after treatment with DHT,[7]; ASO 0.04 μM,124 % baseline value
same,PSA mRNA levels (% baseline value) after treatment with DHT,[7]; ASO 0.20 μM,108 % baseline value
same,PSA mRNA levels (% baseline value) after treatment with DHT,[7]; ASO 1.0 μM,95 % baseline value
same,PSA mRNA levels (% baseline value) after treatment with DHT,[7]; ASO 5.0 μM,95 % baseline value
same,PSA mRNA levels (% baseline value) after treatment with R1881,[7]; ASO 0.04 μM,84 % baseline value
same,PSA mRNA levels (% baseline value) after treatment with R1881,[7]; ASO 0.20 μM,101 % baseline value
same,PSA mRNA levels (% baseline value) after treatment with R1881,[7]; ASO 1.0 μM,92 % baseline value
same,PSA mRNA levels (% baseline value) after treatment with R1881,[7]; ASO 5.0 μM,87 % baseline value
same,PSA mRNA levels (% baseline value) of cells without AR agonist treatment,[7]; ASO 0.04 μM,98 % baseline value
same,PSA mRNA levels (% baseline value) of cells without AR agonist treatment,[7]; ASO 0.20 μM,93 % baseline value
same,PSA mRNA levels (% baseline value) of cells without AR agonist treatment,[7]; ASO 1.0 μM,90 % baseline value
same,PSA mRNA levels (% baseline value) of cells without AR agonist treatment,[7]; ASO 5.0 μM,113 % baseline value
same,PSA mRNA levels in LMR20 cells,[7],did not reduce either PSA or TMPRSS2 mRNA levels
"GTTGATTTAATGGTTG (all phosphorothioate, sugars by position not given here; further chemistry not fully specified) [ISIS 549458]",Percent inhibition of LMR20 cell proliferation,"[1]; CSS + DHT, ASO 0.04 μM",0%
same,Percent inhibition of LMR20 cell proliferation,"[1]; CSS + DHT, ASO 0.20 μM",25%
same,Percent inhibition of LMR20 cell proliferation,"[1]; CSS + DHT, ASO 1.0 μM",60%
same,Percent inhibition of LMR20 cell proliferation,"[1]; CSS + DHT, ASO 5.0 μM",70%
same,Percent inhibition of LMR20 cell proliferation,"[1]; CSS + R1881, ASO 0.04 μM",0%
same,Percent inhibition of LMR20 cell proliferation,"[1]; CSS + R1881, ASO 0.20 μM",22%
same,Percent inhibition of LMR20 cell proliferation,"[1]; CSS + R1881, ASO 1.0 μM",59%
same,Percent inhibition of LMR20 cell proliferation,"[1]; CSS + R1881, ASO 5.0 μM",74%
same,Percent inhibition of LMR20 cell proliferation,"[1]; CSS, ASO 0.04 μM",0%
same,Percent inhibition of LMR20 cell proliferation,"[1]; CSS, ASO 0.20 μM",0%
same,Percent inhibition of LMR20 cell proliferation,"[1]; CSS, ASO 1.0 μM",0%
same,Percent inhibition of LMR20 cell proliferation,"[1]; CSS, ASO 5.0 μM",5%
same,LMR20 cell proliferation,"[1]; in the presence of R1881 or DHT, 0.04-5.0 μM",significantly inhibited MDV3100-resistant prostate cancer cell proliferation in a dose dependent manner more extensively than ISIS 554221
same,PSA mRNA levels in LMR20 cells,[7],reduced PSA levels and TMPRSS2 more extensively than the LNA gapmer ISIS 554221 or MDV3100
same,AR target gene KLK3 mRNA levels,[8],reduced target gene levels in a dose dependent manner more extensively than treatment with ISIS 554221
